According to patent publication US20220324835A1 (Nurix Therapeutics, Inc., priority 2018, published 2022):

Tests used:
Cbl-b [1] = target: T1, Cbl-b (Homo sapiens, UniProt Q13191); assay: Cbl-b inhibition assay (Cbl-b activity assay, FRET, Biological Example 1; 100 mM NaCl, 60 nM Src kinase); assay type: biochemical; settings: upper bound stated in text lists; read-out: IC50 values in the Cbl-b inhibition assay of Biological Example 1
How it was run: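 Inhibition is read as loss of FRET signal. The signal arises when Src-phosphorylated, N-terminal biotinylated Avi-Cbl-b (captured by streptavidin-terbium) binds UbcH5B carrying covalently linked Bodipy-Fluorescein-tagged ubiquitin.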

T-cell [2] = assay: IL-2 secretion from T-cells co-stimulated with anti-CD3 and anti-CD28 antibody (Biological Example 2); assay type: cell-based, human; settings: Homo sapiens, T-cell, fold change over baseline (anti-CD3/anti-CD28 stimulated T-cells without inhibitor), read-out: IL-2 secretion Anti-CD3/Anti-CD28 stimulation; for fold induction at 0.3 µM: 0.3 μM Cbl-b inhibitor; for fold induction at 1 µM: 1 μM Cbl-b inhibitor
How it was run: (§1)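 T-cells were stimulated with anti-CD3 antibody alone or with anti-CD28 antibody, in the presence or absence of Cbl-b inhibitor. IL-2 secretion or CD25 surface staining was measured, and values expressed as fold over the uninhibited baseline […].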

T-cell [3] = assay: IL-2 secretion from T-cells stimulated with anti-CD3 antibody alone (Biological Example 2); assay type: cell-based, human; settings: Homo sapiens, T-cell; 1 μM Cbl-b inhibitor; fold change over baseline (anti-CD3/anti-CD28 stimulated T-cells without inhibitor); read-out: IL-2 secretion Anti-CD3 stimulation
T-cell [4] = assay: CD25 cell surface staining on T-cells co-stimulated with anti-CD3 and anti-CD28 antibody (Biological Example 2); assay type: cell-based, human; settings: Homo sapiens, T-cell, fold change over baseline (anti-CD3/anti-CD28 stimulated T-cells without inhibitor), read-out: CD25 staining Anti-CD3/Anti-CD28 stimulation; for fold induction at 0.3 µM: 0.3 μM Cbl-b inhibitor; for fold induction at 1 µM: 1 μM Cbl-b inhibitor
How it was run: as §1

T-cell [5] = assay: CD25 cell surface staining on T-cells stimulated with anti-CD3 antibody alone (Biological Example 2); assay type: cell-based, human; settings: Homo sapiens, T-cell; 1 μM Cbl-b inhibitor; fold change over baseline (anti-CD3/anti-CD28 stimulated T-cells without inhibitor); read-out: CD25 staining Anti-CD3 stimulation
Cbl-b [6] = target: T1, Cbl-b; assay: Cbl-b activity assay (Cbl-b inhibition assay), TR-FRET of Cbl-b interaction with UbcH5B-Ub; assay type: biochemical; settings: assay buffer with 100 mM NaCl, 60 nM Src kinase; read-out: Cbl-b activity IC50
How it was run: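 UbcH5B (C85K) conjugated to N-terminally Bodipy-Fluorescein-labeled ubiquitin served as the fluorescent partner. After compound preincubation, Src kinase (60 nM) with 1 mM ATP and 5 mM MgCl2 (final) was added for 1.5 h, followed by a further 1 h incubation. Some values were obtained with 50 mM NaCl and 30 nM Src.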

T1 sequence (Q13191 36-427): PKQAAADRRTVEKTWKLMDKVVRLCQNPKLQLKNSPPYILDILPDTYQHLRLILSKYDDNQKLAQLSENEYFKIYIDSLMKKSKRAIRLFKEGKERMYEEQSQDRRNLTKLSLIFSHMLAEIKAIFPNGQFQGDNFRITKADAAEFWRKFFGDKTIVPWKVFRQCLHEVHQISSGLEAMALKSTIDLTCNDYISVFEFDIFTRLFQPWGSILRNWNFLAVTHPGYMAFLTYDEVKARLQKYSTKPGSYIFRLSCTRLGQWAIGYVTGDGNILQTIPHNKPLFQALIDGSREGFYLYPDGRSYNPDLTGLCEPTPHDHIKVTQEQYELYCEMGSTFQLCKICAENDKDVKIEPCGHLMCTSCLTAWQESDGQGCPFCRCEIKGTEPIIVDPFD

SMILES	IC50 (Cbl-b [1]) [nM]	fold induction at 0.3 µM (T-cell [2])	fold induction at 1 µM (T-cell [2])	fold induction at 1 µM (T-cell [3])	fold induction at 0.3 µM (T-cell [4])	fold induction at 1 µM (T-cell [4])	fold induction at 1 µM (T-cell [5])	IC50 (Cbl-b [6]) [nM]
CC(c1cc2c(c(C3CC3)n1)CN(c1cccc(C3(Cc4nncn4C)COC3)c1)C2=O)N1CCCCC1 (stereo not drawn) [Example 587, 4-Cyclopropyl-2-(3-(3-((4-methyl-4H-1,2,4-triazol-3-yl)methyl)oxetan-3-yl)phenyl)-6-(l-(piperidin-1-yl)ethyl)-2,3-dihydro-1H-pyrrolo[3,4-c]pyridin-1-one]	≤ 100	5 to 7.5	> 7.5	> 0.201	> 1.76	> 1.76	0.601 to 0.8	< 100
CC1C(C(F)(F)F)CCN1Cc1cc2c(c(C(F)(F)F)c1)CN(c1cccc(C3(Cc4nncn4C)COC3)c1)C2=O (stereo not drawn) [Example 588, 6-((2-Methyl-3-(trifluoromethyl)pyrrolidin-1-yl)methyl)-2-(3-(3-((4-methyl-4H-1,2,4-triazol-3-yl)methyl)oxetan-3-yl)phenyl)-4-(trifluoromethyl)isoindolin-1-one]	≤ 100	5 to 7.5	> 7.5	0.051 to 0.1	1.01 to 1.3	1.31 to 1.5	> 1	< 100
Cn1cnnc1CC1(c2cccc(NC(=O)c3cc(CN4CCCCC4)nc(C4CC4)n3)c2)COC1 [Example 589, 2-Cyclopropyl-N-(3-(3-((4-methyl-4H-1,2,4-triazol-3-yl)methyl)oxetan-3-yl)phenyl)-6-(piperidin-1-ylmethyl)pyrimidine-4-carboxamide]	≤ 100	> 7.5	> 7.5	> 0.201	> 1.76	> 1.76	> 1	< 100
CC(c1cc(C(=O)Nc2cccc(C3(Cc4nncn4C)COC3)c2)nc(C2CC2)n1)N1CCCC1 (stereo not drawn) [Example 593, 2-Cyclopropyl-N-(3-(3-((4-methyl-4H-1,2,4-triazol-3-yl)methyl)oxetan-3-yl)phenyl)-6-(l-(pyrrolidin-1-yl)ethyl)pyrimidine-4-carboxamide]	≤ 100	> 7.5	> 7.5	> 0.201	1.31 to 1.5	1.31 to 1.5	> 1	< 100
Cn1cnnc1CC1(c2cccc(N3Cc4c(cc(N5CC(C(F)F)C5)cc4C(F)(F)F)C3=O)c2)COC1 [Example 594, 6-(3-(Difluoromethyl)azetidin-1-yl)-2-(3-(3-((4-methyl-4H-1,2,4-triazol-3-yl)methyl)oxetan-3-yl)phenyl)-4-(trifluoromethyl)isoindolin-1-one]	≤ 100	2.51 to 5	5 to 7.5	0.051 to 0.1	1.01 to 1.3	1.01 to 1.3	0.801 to 1	< 100
Cn1cnnc1CC1(c2cccc(N3Cc4c(cc(OC(F)F)cc4C(F)(F)F)C3=O)c2)COC1 [Example 595, 6-(Difluoromethoxy)-2-(3-(3-((4-methyl-4H-1,2,4-triazol-3-yl)methyl)oxetan-3-yl)phenyl)-4-(trifluoromethyl)isoindolin-1-one]	≤ 100	2.51 to 5	5 to 7.5	0.051 to 0.1	1.01 to 1.3	1.31 to 1.5	0.801 to 1	< 100
Cc1cc(C(=O)Nc2cccc(C3(Cc4nncn4C)COC3)c2)n2nccc2n1 [Example 596, 5-Methyl-N-(3-(3-((4-methyl-4H-1,2,4-triazol-3-yl)methyl)oxetan-3-yl)phenyl)pyrazolo[1,5-a]pyrimidine-7-carboxamide]	≤ 300	1.01 to 2.5	1.01 to 2.5	< 0.05	1.01 to 1.3	1.01 to 1.3	0.601 to 0.8	100 to 300
Cc1cc(C(=O)Nc2cccc(C3(Cc4nncn4C)COC3)c2)n2nc(C(F)(F)F)cc2n1 [Example 598, 5-Methyl-N-(3-(3-((4-methyl-4H-1,2,4-triazol-3-yl)methyl)oxetan-3-yl)phenyl)-2-(trifluoromethyl)pyrazolo[1,5-a]pyrimidine-7-carboxamide]	≤ 300	1.01 to 2.5	1.01 to 2.5	< 0.05	1.01 to 1.3	1.01 to 1.3	0.601 to 0.8	100 to 300
Cc1cnn2c(C(=O)Nc3cccc(C4(Cc5nncn5C)COC4)c3)cc(C(F)(F)F)nc12 [Example 599, 3-methyl-N-(3-(3-((4-methyl-4H-1,2,4-triazol-3-yl)methyl)oxetan-3-yl)phenyl)-5-(trifluoromethyl)pyrazolo[1,5-a]pyrimidine-7-carboxamide]	≤ 1000	< 1	1.01 to 2.5	< 0.05	1.01 to 1.3	1.01 to 1.3	0.601 to 0.8	301 to 1000
Cn1cnnc1CC1(c2cccc(N3Cc4c(cc(N5CC(C(F)(F)F)C5)cc4C(F)(F)F)C3=O)c2)COC1 [Example 600, 2-(3-(3-((4-methyl-4H-1,2,4-triazol-3-yl)methyl)oxetan-3-yl)phenyl)-4-(trifluoromethyl)-6-(3-(trifluoromethyl)azetidin-1-yl)isoindolin-1-one]	≤ 100	2.51 to 5	> 7.5	0.051 to 0.1	1.01 to 1.3	1.01 to 1.3	> 1	< 100
Cn1cnnc1CC1(c2cccc(N3Cc4c(cc(N5CCC(C(F)F)C5)cc4C(F)(F)F)C3=O)c2)COC1 (stereo not drawn) [Example 601, 6-(3-(difluoromethyl)pyrrolidin-1-yl)-2-(3-(3-((4-methyl-4H-1,2,4-triazol-3-yl)methyl)oxetan-3-yl)phenyl)-4-(trifluoromethyl)isoindolin-1-one]	≤ 100	1.01 to 2.5	2.51 to 5	< 0.05	1.01 to 1.3	1.01 to 1.3	0.601 to 0.8	< 100
Cn1cnnc1CC1(c2cccc(N3Cc4c(cc(N5CC6(C5)CC(F)(F)C6)cc4C(F)(F)F)C3=O)c2)COC1 [Example 602, 6-(6,6-difluoro-2-azaspiro[3.3]heptan-2-yl)-2-(3-(3-((4-methyl-4H-1,2,4-triazol-3-yl)methyl)oxetan-3-yl)phenyl)-4-(trifluoromethyl)isoindolin-1-one]	≤ 100	5 to 7.5	> 7.5	0.101 to 0.15	1.01 to 1.3	1.31 to 1.5	> 1	< 100
